The results in this text go back to PubChem BioAssay AID248 (DTP/NCI, 2004).

In the assay the test system is L1210 leukemia ip in BDF1 mice, survival T/C. Put plainly: NCI In Vivo Anticancer Drug Screen. Data for tumor model L1210 Leukemia (intraperitoneal) in B6D2F1 (BDF1) mice. Particulars: higher = longer survival. Summed up:
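Mice bearing the transplanted tumor received compound or vehicle. Survival of the treated group was divided by that of the vehicle-treated control group to give the ratio.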

The mark [1] stands for this setting: endpoint: mean survival time, dose: 100.0 mg/kg/injection, schedule: Q01DX001 (ip), vehicle: saline with Tween-80.
The mark [2] stands for this setting: endpoint: mean survival time, dose: 100.0 mg/kg/injection, schedule: Q01DX009 (ip), vehicle: saline with Tween-80.
Setting [3] is: endpoint: mean survival time, dose: 100.0 mg/kg/injection, schedule: Q04DX003 (ip), vehicle: saline with Tween-80.
Setting [4] is: endpoint: mean survival time, dose: 200.0 mg/kg/injection, schedule: Q01DX001 (ip), vehicle: saline with Tween-80.
[5] abbreviates: endpoint: mean survival time, dose: 200.0 mg/kg/injection, schedule: Q01DX009 (ip), vehicle: saline with Tween-80.
The mark [6] stands for this setting: endpoint: mean survival time, dose: 100.0 mg/kg/injection, schedule: Q01DX009 (ip), vehicle: Klucel (hydroxypropylcellulose) (HPC).
The mark [7] stands for this setting: endpoint: mean survival time, dose: 100.0 mg/kg/injection, schedule: Q04DX003 (ip), vehicle: Klucel (hydroxypropylcellulose) (HPC).
[8] abbreviates: endpoint: mean survival time, dose: 200.0 mg/kg/injection, schedule: Q01DX009 (ip), vehicle: Klucel (hydroxypropylcellulose) (HPC).
Setting [9] is: endpoint: mean survival time, dose: 200.0 mg/kg/injection, schedule: Q04DX003 (ip), vehicle: Klucel (hydroxypropylcellulose) (HPC).
Setting [10] is: endpoint: mean survival time, dose: 400.0 mg/kg/injection, schedule: Q01DX009 (ip), vehicle: Klucel (hydroxypropylcellulose) (HPC).
Where [11] appears, read: endpoint: mean survival time, dose: 400.0 mg/kg/injection, schedule: Q04DX003 (ip), vehicle: Klucel (hydroxypropylcellulose) (HPC).
The mark [12] stands for this setting: endpoint: mean survival time, dose: 100.0 mg/kg/injection, schedule: Q01DX001 (ip), vehicle: saline.
The mark [13] stands for this setting: endpoint: mean survival time, dose: 200.0 mg/kg/injection, schedule: Q01DX001 (ip), vehicle: saline.
Where [14] appears, read: endpoint: mean survival time, dose: 12.5 mg/kg/injection, schedule: Q01DX009 (ip), vehicle: saline.
Setting [15] is: endpoint: mean survival time, dose: 100.0 mg/kg/injection, schedule: Q04DX002 (ip), vehicle: Klucel (hydroxypropylcellulose) (HPC).
[16] abbreviates: endpoint: mean survival time, dose: 200.0 mg/kg/injection, schedule: Q04DX002 (ip), vehicle: Klucel (hydroxypropylcellulose) (HPC).
Where [17] appears, read: endpoint: mean survival time, dose: 400.0 mg/kg/injection, schedule: Q04DX002 (ip), vehicle: Klucel (hydroxypropylcellulose) (HPC).
The mark [18] stands for this setting: endpoint: mean survival time, dose: 25.0 mg/kg/injection, schedule: Q01DX009 (ip), vehicle: saline.
Where [19] appears, read: endpoint: mean survival time, dose: 50.0 mg/kg/injection, schedule: Q01DX009 (ip), vehicle: saline.

The structures appear in SMILES notation. “And” between values parts separate entries of the source, which are not always exact repeats. Equal values may be shown once. Inconclusive results and toxic doses are left out.

Turning to `CCN(CC)CCOCCO`, the T/C was 96 % of control (endpoint: mean survival time, dose: 100.0 mg/kg/injection, schedule: Q04DX003 (ip), vehicle: saline); 102 % of control (endpoint: mean survival time, dose: 200.0 mg/kg/injection, schedule: Q04DX003 (ip), vehicle: saline); 109 % of control (endpoint: mean survival time, dose: 400.0 mg/kg/injection, schedule: Q04DX003 (ip), vehicle: saline).
Regarding `CN(Cc1cnc2nc(N)nc(N)c2n1)c1ccc(C(=O)NC(CCC(=O)O)C(=O)O)cc1F` (configuration not stated), the T/C (endpoint: median survival time, dose: 1.25 mg/kg/injection, schedule: Q01DX009 (ip), vehicle: other) is 150 % of control and the T/C (endpoint: median survival time, dose: 2.5 mg/kg/injection, schedule: Q01DX009 (ip), vehicle: other) was 161 % of control.
For `Cc1ccc(Cl)cc1NC(=O)NCc1cccnc1`, the T/C under setting [1] was 93 % of control; the T/C under setting [2] was 103 % of control and 91 % of control; the T/C (endpoint: mean survival time, dose: 100.0 mg/kg/injection, schedule: Q04DX002 (ip), vehicle: saline with Tween-80) is 106 % of control and 88 % of control; the T/C under setting [3] was 107 % of control; the T/C under setting [4] is 90 % of control; the T/C under setting [5] is 104 % of control and 92 % of control. Moreover, the T/C (endpoint: mean survival time, dose: 200.0 mg/kg/injection, schedule: Q04DX002 (ip), vehicle: saline with Tween-80) was 95 % of control and 89 % of control; the T/C (endpoint: mean survival time, dose: 200.0 mg/kg/injection, schedule: Q04DX003 (ip), vehicle: saline with Tween-80) was 100 % of control; the T/C (endpoint: mean survival time, dose: 400.0 mg/kg/injection, schedule: Q01DX001 (ip), vehicle: saline with Tween-80) is 90 % of control; the T/C (endpoint: mean survival time, dose: 400.0 mg/kg/injection, schedule: Q01DX009 (ip), vehicle: saline with Tween-80) was 96 % of control and 113 % of control; the T/C (endpoint: mean survival time, dose: 400.0 mg/kg/injection, schedule: Q04DX002 (ip), vehicle: saline with Tween-80) was 95 % of control and 91 % of control; the T/C (endpoint: mean survival time, dose: 400.0 mg/kg/injection, schedule: Q04DX003 (ip), vehicle: saline with Tween-80) is 103 % of control.
As for `ClC(c1ccccc1)C1(Cl)C=c2ccccc2=C1` (configuration not stated), the T/C is, setting by setting: under setting [6], 98 % of control; under setting [7], 102 % of control; under setting [8], 98 % of control; under setting [9], 92 % of control; under setting [10], 95 % of control; under setting [11], 96 % of control.
In the case of `CC1=C2[C@H]3OC(=O)[C@@H](C)[C@@H]3CC[C@@]2(C)C=CC1=O`, the T/C was 101 % of control under setting [12], 97 % of control under setting [7], 101 % of control under setting [13] and 103 % of control under setting [9].
`CN(C)/C=C/c1nnc([N+](=O)[O-])s1`: the T/C is 100 % of control (endpoint: mean survival time, dose: 62.0 mg/kg/injection, schedule: Q04DX003 (ip), vehicle: Klucel (hydroxypropylcellulose) (HPC)); 98 % of control (endpoint: mean survival time, dose: 123.0 mg/kg/injection, schedule: Q04DX003 (ip), vehicle: Klucel (hydroxypropylcellulose) (HPC)); 98 % of control (endpoint: mean survival time, dose: 256.0 mg/kg/injection, schedule: Q04DX003 (ip), vehicle: Klucel (hydroxypropylcellulose) (HPC)); 100 % of control (endpoint: mean survival time, dose: 512.0 mg/kg/injection, schedule: Q04DX003 (ip), vehicle: Klucel (hydroxypropylcellulose) (HPC)).
In the case of `Cc1ccc([N+](=O)[O-])cc1N=C=O`, the T/C is, setting by setting: under setting [6], 87 % of control; under setting [7], 96 % of control; under setting [8], 91 % of control; under setting [9], 97 % of control; under setting [10], 97 % of control; under setting [11], 97 % of control.
In the case of `CC(=O)OCC1OC(OC(C)=O)C(NS(=O)(=O)c2ccc(C)cc2)C(OC(C)=O)C1OC(C)=O` (configuration not stated), the T/C was 102 % of control under setting [12]; 104 % of control under setting [13]; 102 % of control (endpoint: mean survival time, dose: 400.0 mg/kg/injection, schedule: Q01DX001 (ip), vehicle: saline).
As to `CC(C)C(CN)(CCCN1CCCCC1)c1cccc2ccccc12` (configuration not stated), the T/C under setting [3] was 101 % of control.
Regarding `C1CN2CCN1CC2.[Cl][Ni+][Cl]`, the T/C (endpoint: mean survival time, dose: 1.56 mg/kg/injection, schedule: Q01DX009 (ip), vehicle: saline) was 101 % of control; the T/C (endpoint: mean survival time, dose: 2.0 mg/kg/injection, schedule: Q04DX003 (ip), vehicle: saline) was 109 % of control; the T/C (endpoint: mean survival time, dose: 3.12 mg/kg/injection, schedule: Q01DX009 (ip), vehicle: saline) is 101 % of control; the T/C (endpoint: mean survival time, dose: 4.0 mg/kg/injection, schedule: Q04DX003 (ip), vehicle: saline) is 106 % of control; the T/C (endpoint: mean survival time, dose: 6.25 mg/kg/injection, schedule: Q01DX009 (ip), vehicle: saline) was 94 % of control; the T/C (endpoint: mean survival time, dose: 8.0 mg/kg/injection, schedule: Q04DX003 (ip), vehicle: saline) is 97 % of control. The T/C under setting [14] is 92 % of control and the T/C (endpoint: mean survival time, dose: 16.0 mg/kg/injection, schedule: Q04DX003 (ip), vehicle: saline) is 105 % of control.
For the compound `CCCS(=O)(=O)N1CCC(C)CC1`, the T/C under setting [15] was 102 % of control, the T/C under setting [16] is 97 % of control and the T/C under setting [17] is 97 % of control.
On to `CCOc1ccc(-n2cnc3c(=O)[nH]c(N)nc32)cc1`, for which the T/C under setting [6] is 93 % of control, the T/C under setting [8] is 91 % of control and the T/C under setting [10] is 91 % of control.
Consider `CCCP(=S)(CCC)CCC`, for which the T/C under setting [1] was 103 % of control and the T/C under setting [4] is 94 % of control.
Take `CN(C)C(=O)c1cc(NC(=O)Nc2ccc(C3=NCCN3)cc2)cc(NC(=O)Nc2ccc(C3=NCCN3)cc2)c1`: the T/C (endpoint: mean survival time, dose: 15.0 mg/kg/injection, schedule: Q01DX Z (ip), vehicle: saline) was 158 % of control; the T/C (endpoint: mean survival time, dose: 30.0 mg/kg/injection, schedule: Q01DX Z (ip), vehicle: saline) was 222 % of control; the T/C (endpoint: mean survival time, dose: 60.0 mg/kg/injection, schedule: Q01DX Z (ip), vehicle: saline) is 250 % of control.
Turning to `CC(C)CCCC(C)CCCC(C)CCCCC(C)CCCC(C)CCCC(C)C` (configuration not stated), the T/C runs as follows: under setting [15], 103 % of control; under setting [16], 106 % of control; under setting [17], 109 % of control.
With `CC(=O)Nc1ccc(NC(=O)NC(C)(C)C)cc1`, the T/C under setting [6] is 97 % of control, the T/C under setting [8] was 96 % of control and the T/C under setting [10] is 96 % of control.
Consider `CCCCCCCOC(=O)COc1ccc(Cl)cc1Cl`, for which the T/C reads like this: under setting [15], 90 % of control; under setting [16], 87 % of control; under setting [17], 97 % of control.
Turning to `CCCCCCCCCCCCCCCC(=O)OC(C)COC` (configuration not stated), the T/C is, setting by setting: (endpoint: mean survival time, dose: 50.0 mg/kg/injection, schedule: Q01DX009 (ip), vehicle: saline with Tween-80) 108 % of control; (endpoint: mean survival time, dose: 100.0 mg/kg/injection, schedule: Q01DX001 (ip), vehicle: other) 102 % of control; under setting [2], 98 % of control; (endpoint: mean survival time, dose: 100.0 mg/kg/injection, schedule: Q04DX003 (ip), vehicle: other) 111 % of control; (endpoint: mean survival time, dose: 200.0 mg/kg/injection, schedule: Q01DX001 (ip), vehicle: other) 94 % of control; under setting [5], 98 % of control. In addition, the T/C was 107 % of control (endpoint: mean survival time, dose: 200.0 mg/kg/injection, schedule: Q04DX003 (ip), vehicle: other); 101 % of control (endpoint: mean survival time, dose: 400.0 mg/kg/injection, schedule: Q01DX001 (ip), vehicle: other); 110 % of control (endpoint: mean survival time, dose: 400.0 mg/kg/injection, schedule: Q04DX003 (ip), vehicle: other).
Take `O=C(OCC1OCC(OC(=O)c2ccccc2)C1OC(=O)c1ccccc1)c1ccccc1` (configuration not stated): the T/C was 92 % of control under setting [1] and 110 % of control under setting [4].
In the case of `CCN(C1CCCCC1)C1CCCCC1`, the T/C is, setting by setting: under setting [18], 100 % of control; under setting [19], 98 % of control; (endpoint: mean survival time, dose: 100.0 mg/kg/injection, schedule: Q01DX009 (ip), vehicle: saline) 107 % of control.
On to `COc1ccc(C)cc1NC(=S)NC(=O)c1cc([N+](=O)[O-])cc([N+](=O)[O-])c1`, for which the T/C under setting [6] is 97 % of control; the T/C under setting [7] was 95 % of control; the T/C under setting [8] was 90 % of control; the T/C under setting [9] is 100 % of control; the T/C under setting [10] is 95 % of control; the T/C under setting [11] was 97 % of control.
Regarding `Nc1nc(N)c(-c2cccc(Cl)c2)c(CBr)n1`, the T/C is 101 % of control under setting [14], 102 % of control under setting [18] and 104 % of control under setting [19].
